Earlier results, collected in patent US20250122241A1, “CYCLIC PEPTIDE IMMUNOMODULATORS” (BRISTOL-MYERS SQUIBB COMPANY, priority 2021, published 2025).

Settings: oral administration; extensive first-pass metabolism in the liver

bioavailability: about 10%
SMILES: CCCC1O[C@@H]2C[C@H]3[C@@H]4CCC5=CC(=O)C=C[C@]5(C)[C@H]4[C@@H](O)C[C@]3(C)[C@]2(C(=O)CO)O1 (stereo partly shown) [budesonide]
